The values below come from paper PMC13608006 (Journal of medicinal chemistry, 2018).

This assay has as its system CV-B3 (CVB3-H3). Type of assay: cell-based, coxsackievirus B3. The following applies: for SI50 (CV-B3 in HeLa cells): SI50 = CC50/EC50.

As to `CC(C)n1ncc2c(C(=O)Nc3ccccc3F)cc(-c3ccccn3)nc21` [JX004, N-(2-Fluorophenyl)-1-isopropyl-6-(pyridin-2-yl)-1H-pyrazolo[3,4-b]pyridine-4-carboxamide], the “SI50 (CV-B3 in HeLa cells)” value is recorded as “SI50: >29.0”.

On to `O=C(Nc1ccc(F)cc1)c1cc(-c2cccs2)nc2[nH]ncc12` [JX032, N-(4-Fluorophenyl)-6-(thiophen-2-yl)-1H-pyrazolo[3,4-b]-pyridine-4-carboxamide], for which the “antiviral activities against coxsackievirus B3 (CV-B3)” value (shortened to “antiviral activities”) was “none of the above analogs demonstrated antiviral activities”.

With `CC(C)n1ncc2c(C(=O)Nc3ccc(F)c(F)c3)cc(-c3cccs3)nc21` [JX015, N-(3,4-Difluorophenyl)-1-isopropyl-6-(thiophen-2-yl)-1H-pyrazolo[3,4-b]pyridine-4-carboxamide], the “SI50 (CV-B3 in HeLa cells)” value is on record as “SI50: >153.8”.

For the compound `CC(C)(C)n1ncc2c(C(=O)Nc3ccccc3F)cc(-c3cccs3)nc21` [JX013, 1-(tert-Butyl)-N-(2-fluorophenyl)-6-(thiophen-2-yl)-1H-pyrazolo[3,4-b]pyridine-4-carboxamide], the “antiviral activities” value is “none of the above analogs demonstrated antiviral activities”.

For `CC(C)n1ccc2c(C(=O)Nc3ccc(F)cc3)cc(-c3cccs3)nc21` [JX037, N-(4-Fluorophenyl)-1-isopropyl-6-(thiophen-2-yl)-1H-pyrrolo[2,3-b]pyridine-4-carboxamide], the “SI50 (CV-B3 in HeLa cells)” value was “SI50: 64.5”.

As for `O=C(Nc1ccc(F)cc1)c1cc(-c2cccs2)nc2c1cnn2C1CCCCCC1` [JX029, 1-Cycloheptyl-N-(4-fluorophenyl)-6-(thiophen-2-yl)-1H-pyrazolo[3,4-b]pyridine-4-carboxamide], the “antiviral activities” value is reported as “none of the above analogs demonstrated antiviral activities”.

For `O=C(Nc1ccc(F)cc1)c1cc(-c2cccs2)nc2c1cnn2C1CCCCC1` [JX028, 1-Cyclohexyl-N-(4-fluorophenyl)-6-(thiophen-2-yl)-1H-pyrazolo[3,4-b]pyridine-4-carboxamide], the “antiviral activities” value is listed as “none of the above analogs demonstrated antiviral activities”.

For `CC(C)n1ncc2c(C(=O)Nc3ccccc3F)cc(-c3ccncc3)nc21` [JX003, N-(2-Fluorophenyl)-1-isopropyl-6-(pyridin-4-yl)-1H-pyrazolo[3,4-b]pyridine-4-carboxamide], the “SI50 (CV-B3 in HeLa cells)” value is listed as “SI50: 7.4”.

On to `O=C(Nc1ccc(F)cc1)c1cc(-c2cccs2)nc2c1cnn2C1CCCC1` [JX027, 1-Cyclopentyl-N-(4-fluorophenyl)-6-(thiophen-2-yl)-1H-pyrazolo[3,4-b]pyridine-4-carboxamide], for which the “antiviral activities” value is recorded as “none of the above analogs demonstrated antiviral activities”.

As to `O=C(Nc1ccccc1F)c1cc(-c2cccs2)nc2c1cnn2CC(F)(F)F` [JX022, N-(2-Fluorophenyl)-6-(thiophen-2-yl)-1-(2,2,2-trifluoroethyl)-1H-pyrazolo[3,4-b]pyridine-4-carboxamide], the “antiviral activities” value is listed as “none of the above analogs demonstrated antiviral activities”.

Consider `COc1ccc(Cn2ncc3c(C(=O)Nc4ccc(F)cc4)cc(-c4cccs4)nc32)cc1` [JX031, N-(4-Fluorophenyl)-1-(4-methoxybenzyl)-6-(thiophen-2-yl)-1H-pyrazolo[3,4-b]pyridine-4-carboxamide], for which the “antiviral activities” value was “none of the above analogs demonstrated antiviral activities”.

Take `O=C(Nc1ccccc1F)c1cc(-c2cccs2)nc2c1cnn2-c1ccccc1` [JX012, N-(2-Fluorophenyl)-1-phenyl-6-(thiophen-2-yl)-1H-pyrazolo[3,4-b]pyridine-4-carboxamide]: the “antiviral activities” value is listed as “none of the above analogs demonstrated antiviral activities”.

As for `O=C(Nc1ccccc1F)c1cc(-c2cccs2)nc2c1cnn2C1CCC1` [JX014, 1-Cyclobutyl-N-(2-fluorophenyl)-6-(thiophen-2-yl)-1H-pyrazolo[3,4-b]pyridine-4-carboxamide], the “antiviral activities” value is “none of the above analogs demonstrated antiviral activities”.
